Data: ChEMBL document CHEMBL5678811 (Invest New Drugs, 2014)
The source made the active and inactive calls. The calls are words filed in the database; no cut-off is given here.

Columns and labels:
MCF-10A = assay: Cell cycle arrest in human MCF-10A cells assessed as accumulation of cells at G1 phase by measuring increase in 2N DNA content measured after 24 hrs by propidium iodide staining based laser-scanning fluorescence cytometry; assay type: toxicity
MV4-11 [1] = assay: Cell cycle arrest in human MV4-11 cells assessed as accumulation of cells at G1-phase at 0.04 uM measured after 24 hrs by propidium iodide staining based flow cytometry (reference value: 61.42%); assay type: functional
MV4-11 [2] = assay: Cell cycle arrest in human MV4-11 cells assessed as accumulation of cells at G2/M-phase at 0.04 uM measured after 24 hrs by propidium iodide staining based flow cytometry (reference value: 15.23%); assay type: functional
MV4-11 [3] = assay: Cell cycle arrest in human MV4-11 cells assessed as accumulation of cells at G1-phase at 0.08 uM measured after 24 hrs by propidium iodide staining based flow cytometry (reference value: 61.42%); assay type: functional
MV4-11 [4] = assay: Cell cycle arrest in human MV4-11 cells assessed as accumulation of cells at G2/M-phase at 0.08 uM measured after 24 hrs by propidium iodide staining based flow cytometry (reference value: 15.23%); assay type: functional
MV4-11 [5] = assay: Cell cycle arrest in human MV4-11 cells assessed as accumulation of cells at G2/M-phase at […] measured after 24 hrs by propidium iodide staining based flow cytometry (reference value: 15.23%); assay type: functional; conditions: dose 0.625 µM
MV4-11 [6] = assay: Cell cycle arrest in human MV4-11 cells assessed as accumulation of cells at G1-phase at 2.5 uM measured after 24 hrs by propidium iodide staining based flow cytometry (reference value: 61.42%); assay type: functional
MV4-11 [7] = assay: Cell cycle arrest in human MV4-11 cells assessed as accumulation of cells at G1-phase at 5 uM measured after 24 hrs by propidium iodide staining based flow cytometry (reference value: 61.42%); assay type: functional
MDA-MB-468 = assay: Cell cycle arrest in human MDA-MB-468 cells assessed as accumulation of cells at G2/M-phase at 2.5 uM measured after 24 hrs by propidium iodide staining based flow cytometry (reference value: 26.49%); assay type: functional
COLO 205 [8] = assay: In vivo inhibition of CDK4/CDK6 in human COLO 205 cells xenografted CD1 nu/nu mouse assessed as reduction in TopoIIalpha expression at 12.5 to 50 mg/kg, po administered via gavage measured after 24 hrs by Western blot analysis; assay type: functional, organism-based; conditions: dose 12.5-50 mg/kg
[9] = Toxicity in human COLO 205 cells xenografted CD1 nu/nu mouse assessed as body weight loss at 25 to 100 mg/kg, po administered once daily via gavage for 21 days measured twice per week during compound dosing; assay type: organism-based; conditions: in vivo, dose 25-100 mg/kg, time 21 day
[10] = Toxicity in human COLO 205 cells xenografted CD1 nu/nu mouse at 25 to 100 mg/kg, po administered once daily via gavage for 21 days; assay type: organism-based; conditions: in vivo, dose 25-100 mg/kg, time 21 day
[11] = Toxicity in human COLO 205 cells xenografted CD1 nu/nu mouse assessed as body weight loss at 50 mg/kg, po administered daily via gavage for 56 days and measured twice per week during compound dosing; assay type: organism-based; conditions: in vivo, 1344 h, time 56 day
[12] = Toxicity in human COLO 205 cells xenografted CD1 nu/nu mouse assessed as change in jejunum histology at 50 mg/kg, po administered daily via gavage for 2 cycles of 3 weeks on/1 week rest and measured on day 41 to 69 by histopathological analysis; assay type: organism-based; conditions: in vivo, time 41-69 day
[13] = Toxicity in human COLO 205 cells xenografted CD1 nu/nu mouse assessed as change in ileum histology at 50 mg/kg, po administered daily via gavage for 56 days and measured on day 41 to 69 by histopathological analysis; assay type: organism-based; conditions: in vivo, 1344 h, time 41-69 day
[14] = Toxicity in human COLO 205 cells xenografted CD1 nu/nu mouse assessed as change in ileum histology at 50 mg/kg, po administered daily via gavage for 2 cycles of 3 weeks on/1 week rest and measured on day 41 to 69 by histopathological analysis; assay type: organism-based; conditions: in vivo, time 41-69 day
[15] = Toxicity in human COLO 205 cells xenografted CD1 nu/nu mouse assessed as change in cecum histology at 50 mg/kg, po administered daily via gavage for 2 cycles of 3 weeks on/1 week rest and measured on day 41 to 69 by histopathological analysis; assay type: organism-based; conditions: in vivo, time 41-69 day
[16] = Toxicity in human COLO 205 cells xenografted CD1 nu/nu mouse assessed as decrease in red cell mass at 50 mg/kg, po administered daily via gavage for 2 cycles of 3 weeks on/1 week rest and measured on day 41 to 69 by hematological analysis; assay type: organism-based; conditions: in vivo, time 41-69 day
[17] = Toxicity in human COLO 205 cells xenografted CD1 nu/nu mouse assessed as decrease in lymphocyte count at 50 mg/kg, po administered daily via gavage for 2 cycles of 3 weeks on/1 week rest and measured on day 41 to 69 by hematological analysis; assay type: organism-based; conditions: in vivo, time 41-69 day
[18] = Toxicity in human Calu-6 cells xenografted CD1 nu/nu mouse assessed as body weight loss at 50 mg/kg, po administered once daily via gavage for 21 days measured twice per week during compound dosing in presence of gemcitabine; assay type: organism-based; conditions: in vivo, time 21 day
[19] = Toxicity in human Calu-6 cells xenografted CD1 nu/nu mouse assessed as body weight loss at 50 mg/kg, po administered once daily via gavage for 12 days followed by gemcitabine addition for 4 days and measured twice per week during compound dosing; assay type: organism-based; conditions: in vivo, 384 h, time 16 day
COLO 205 [20] = conditions: Mus musculus, CD1, dose 25-50 mg/kg, route po
COLO 205 [21] = conditions: Mus musculus, CD1, dose 50.0 mg/kg, route po
COLO 205 [22] = conditions: Mus musculus, CD1, dose 50.0 mg/kg, route po; remark: listed apart in the source
COLO 205 [23] = conditions: Mus musculus, CD1, dose 50.0 mg/kg, route po; remark: listed apart in the source
COLO 205 [24] = conditions: Mus musculus, CD1, dose 50.0 mg/kg, route po; remark: listed apart in the source
COLO 205 [25] = conditions: Homo sapiens, dose 25-100 mg/kg, route po, time 35.0 day
Calu-6 [26] = conditions: Homo sapiens, dose 50.0 mg/kg, route po, time 21.0 day
Calu-6 [27] = conditions: Homo sapiens, dose 50.0 mg/kg, route po, time 16.0 day
Mus musculus = organism: Mus musculus; conditions: CD1, dose 50.0 mg/kg, route po, time 22.0 day
[28] = biological target: Glycogen synthase kinase-3 beta (Homo sapiens) (UniProt P49841); conditions: dose 200.0 nM
Description: Inhibition of human GSK3beta relative to control

[29] = biological target: High affinity nerve growth factor receptor (Homo sapiens) (UniProt P04629); conditions: Sf21, dose 200.0 nM
[30] = biological target: Receptor-type tyrosine-protein kinase FLT3 (Homo sapiens) (UniProt P36888); conditions: Sf21, dose 200.0 nM
Receptor-type tyrosine-protein kinase FLT3 (Homo sapiens), sequence (P36888 whole entry): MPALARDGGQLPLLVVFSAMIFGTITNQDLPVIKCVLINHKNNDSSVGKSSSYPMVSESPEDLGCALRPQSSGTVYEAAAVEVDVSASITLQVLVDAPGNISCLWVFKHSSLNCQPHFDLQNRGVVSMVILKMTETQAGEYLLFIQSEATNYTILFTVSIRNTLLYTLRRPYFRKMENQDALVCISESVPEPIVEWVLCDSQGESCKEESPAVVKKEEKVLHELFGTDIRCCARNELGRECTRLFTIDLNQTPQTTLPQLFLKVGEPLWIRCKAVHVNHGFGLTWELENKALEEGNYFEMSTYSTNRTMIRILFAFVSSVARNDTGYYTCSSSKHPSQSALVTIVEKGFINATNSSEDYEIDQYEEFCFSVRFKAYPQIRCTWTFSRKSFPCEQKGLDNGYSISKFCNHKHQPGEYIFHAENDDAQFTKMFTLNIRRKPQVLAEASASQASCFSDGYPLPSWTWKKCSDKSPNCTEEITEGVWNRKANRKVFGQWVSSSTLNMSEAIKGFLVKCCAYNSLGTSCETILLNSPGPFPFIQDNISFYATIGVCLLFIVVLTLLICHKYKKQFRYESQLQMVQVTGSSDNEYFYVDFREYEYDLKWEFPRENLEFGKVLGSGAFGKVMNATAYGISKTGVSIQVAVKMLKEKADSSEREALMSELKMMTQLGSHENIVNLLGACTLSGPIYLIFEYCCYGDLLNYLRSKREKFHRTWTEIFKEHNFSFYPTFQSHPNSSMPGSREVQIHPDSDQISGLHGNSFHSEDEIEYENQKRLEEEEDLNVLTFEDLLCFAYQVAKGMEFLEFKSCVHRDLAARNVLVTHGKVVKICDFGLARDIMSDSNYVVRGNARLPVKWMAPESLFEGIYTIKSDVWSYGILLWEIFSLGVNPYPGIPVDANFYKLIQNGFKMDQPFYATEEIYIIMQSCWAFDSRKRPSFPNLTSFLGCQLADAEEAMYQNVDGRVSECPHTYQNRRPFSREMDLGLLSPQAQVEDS
Description: Inhibition of recombinant human N-terminal GST-tagged FLT3 (564 to end residues) expressed in baculovirus infected Sf21 cells at 200 nM using Abltide as substrate relative to control

High affinity nerve growth factor receptor (Homo sapiens), sequence (P04629 33-796 limits assumed): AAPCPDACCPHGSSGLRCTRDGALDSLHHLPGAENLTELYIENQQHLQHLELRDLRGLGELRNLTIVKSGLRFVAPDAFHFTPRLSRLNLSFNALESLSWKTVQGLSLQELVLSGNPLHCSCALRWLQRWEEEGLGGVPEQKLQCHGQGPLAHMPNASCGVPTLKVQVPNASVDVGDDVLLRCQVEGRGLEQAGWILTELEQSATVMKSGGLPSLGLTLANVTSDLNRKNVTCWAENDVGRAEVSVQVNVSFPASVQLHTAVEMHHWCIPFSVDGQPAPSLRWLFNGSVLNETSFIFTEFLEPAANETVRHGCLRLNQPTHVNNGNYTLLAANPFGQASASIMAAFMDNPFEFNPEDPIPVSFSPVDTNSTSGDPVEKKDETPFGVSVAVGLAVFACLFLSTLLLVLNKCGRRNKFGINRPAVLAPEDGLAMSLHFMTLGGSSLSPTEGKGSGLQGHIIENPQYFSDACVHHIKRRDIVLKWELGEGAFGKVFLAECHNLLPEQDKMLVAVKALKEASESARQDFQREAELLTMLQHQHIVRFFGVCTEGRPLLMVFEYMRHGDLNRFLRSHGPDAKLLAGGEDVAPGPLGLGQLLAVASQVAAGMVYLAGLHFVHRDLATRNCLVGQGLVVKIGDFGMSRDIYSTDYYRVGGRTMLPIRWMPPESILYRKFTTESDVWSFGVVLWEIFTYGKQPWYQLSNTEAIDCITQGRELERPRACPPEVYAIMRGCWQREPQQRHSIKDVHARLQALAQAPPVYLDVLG
Glycogen synthase kinase-3 beta (Homo sapiens), sequence (P49841 whole entry, looked up): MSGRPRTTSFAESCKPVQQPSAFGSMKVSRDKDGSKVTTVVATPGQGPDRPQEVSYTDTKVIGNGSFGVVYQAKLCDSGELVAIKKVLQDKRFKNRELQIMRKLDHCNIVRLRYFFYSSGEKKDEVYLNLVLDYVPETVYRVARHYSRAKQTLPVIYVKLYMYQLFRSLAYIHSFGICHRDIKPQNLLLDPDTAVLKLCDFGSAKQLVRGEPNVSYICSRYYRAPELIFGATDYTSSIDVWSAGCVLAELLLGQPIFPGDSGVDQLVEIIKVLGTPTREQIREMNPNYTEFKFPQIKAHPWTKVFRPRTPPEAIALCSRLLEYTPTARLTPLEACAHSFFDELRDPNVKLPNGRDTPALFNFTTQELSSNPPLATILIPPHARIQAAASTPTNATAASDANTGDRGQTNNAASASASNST

SMILES: CCN1CCN(Cc2ccc(Nc3ncc(F)c(-c4cc(F)c5nc(C)n(C(C)C)c5c4)n3)nc2)CC1 [ABEMACICLIB]
- Activity (MCF-10A): Toxic
- Activity (MV4-11 [1]): 77.47%
- Activity (MV4-11 [2]): 6.21%
- Activity (MV4-11 [3]): 89.44%
- Activity (MV4-11 [4]): 1.97%
- Activity (MV4-11 [5]): 1.78%
- Activity (MV4-11 [6]): 94.06%
- Activity (MV4-11 [7]): 95.56%
- Activity (MDA-MB-468): 28.82%
- inhibition (COLO 205 [8]): Active
- Activity [9]: Non-Toxic
- Activity [10]: Non-Toxic
- Activity [11]: Non-Toxic
- Activity [12]: Non-Toxic
- Activity [13]: Non-Toxic
- Activity [14]: Non-Toxic
- Activity [15]: Non-Toxic
- Activity [16]: Non-Toxic
- Activity [17]: Non-Toxic
- Activity [18]: Non-Toxic
- Activity [19]: Non-Toxic
- inhibition (COLO 205 [20]): Dose-Dependent Effect
- inhibition (COLO 205 [21]): Active
- inhibition (COLO 205 [22]): inactive
- inhibition (COLO 205 [23]): inactive
- inhibition (COLO 205 [24]): inactive
- TGI (COLO 205 [25]): Dose-Dependent Effect
- TGI (Calu-6 [26]): Active
- TGI (Calu-6 [27]): Active
- inhibition (Mus musculus): inactive
- inhibition [28]: > 90%
- inhibition [29]: > 90%
- inhibition [30]: > 90%
